From patent US9029362B2, “Iminothiadiazine dioxide compounds as brace inhibitors, compositions, and their use” (Merck Sharp & Dohme Corp., priority 2009, dated 2015)
pKi: −log10 of the molar value. Like-named read-outs stand apart in the source and are kept apart here. Each block holds one compound with its values, some of them ahead of it.

Tests used:
[1] = Caco-2 Bi-directional Permeability; type: in vitro ADME; conditions: human; for Papp A→B at 2 h: Caco-2, pH 7.4, apical to basolateral, 2-hr incubation, read-out: Caco-2 AP → BL (nm/s) (Iminothiadiazine Dioxide)
Method: (§1) The bi-directional permeability with efflux potential of selected compounds of the invention vs. otherwise structurally identical iminopyrimidinones (collectively referred to as test compounds, shown in the table below) were assessed using Caco-2 cell line. The Caco-2 cells were maintained in DMEM (Dulbecco's Modified Eagle Medium) containing 10% fetal bovine serum, 1% non-essential amino acids, 2 mM L-glutamine, and 1% penicillin-streptomycin in an incubator at ˜37° C. in an atmosphere of 5% CO2 and about 90% relative humidity. The cell culture medium was changed three times weekly. Caco-2 cell monolayers were grown on polyethylene terephthalate filters using 24-well BD Falcon™ Cell Culture Insert Plates (0.33 cm^2 insert area, 1 μm pore size; BD BioSciences, Bedford, Mass.). The culture medium of the plate was changed every other day until used for the transport experiment (21-28 days post seeding).
(§2) The transport buffer (TM) was Hank's balanced salt solution (HBSS) with 10 mM HEPES and 25 mM glucose (pH 7.4) for dosing and TM with 4% bovine serum albumin for receiver (pH 7.4). The bi-directional permeability of the test compounds were tested at concentrations of 1, 10 and 100 μM was measured in triplicate with 2-hr incubation. The cell monolayer integrity was monitored with pre- and post-experimental trans-epithelial electrical resistance and post-experimental Lucifer Yellow (LY) permeability with 1 hr incubation.
(§3) The apparent permeability, recovery and efflux ratio values were calculated using the following equations:

Caco-2 cells = assay: Caco-2 Bi-directional Permeability; type: in vitro ADME; conditions: apical to basolateral, 2-hr incubation; for Caco-2 AP → BL (nm/s) (Iminopyrimidinone): iminopyrimidinone analog
Method: as §1, §2, §3

[2] = molecular target: purified human autoBACE-2 (Homo sapiens (Human), UniProt Q9Y5Z0); assay: BACE-2 Assay (BACE-HTRF assay); type: biochemical
Sequence of purified human autoBACE-2 (Q9Y5Z0 63-518): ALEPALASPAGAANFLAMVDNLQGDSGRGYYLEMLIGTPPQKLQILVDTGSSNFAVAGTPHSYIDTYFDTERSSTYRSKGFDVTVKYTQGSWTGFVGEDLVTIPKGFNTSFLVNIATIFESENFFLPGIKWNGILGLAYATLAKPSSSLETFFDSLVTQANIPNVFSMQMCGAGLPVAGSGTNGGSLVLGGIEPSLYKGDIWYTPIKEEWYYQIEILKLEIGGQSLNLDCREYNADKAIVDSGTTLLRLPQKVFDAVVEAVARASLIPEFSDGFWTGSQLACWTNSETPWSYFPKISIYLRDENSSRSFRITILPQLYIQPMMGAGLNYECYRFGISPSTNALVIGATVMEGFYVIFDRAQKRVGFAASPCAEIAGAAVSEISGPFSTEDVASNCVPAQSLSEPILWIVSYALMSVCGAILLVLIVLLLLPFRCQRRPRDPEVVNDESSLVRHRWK
Method: Inhibitor IC50s at purified human autoBACE-2 were determined in a time-resolved endpoint proteolysis assay that measures hydrolysis of the QSY7-[sequence]-Eu-amide FRET peptide substrate (BACE-HTRF assay). […] DMSO was present at 5% final concentration in the assay. Following laser excitation of sample wells at 320 nm, the fluorescence signal at 620 nm was collected for 400 ms following a 50 s delay on a RUBYstar HTRF plate reader (BMG Labtechnologies). Raw RFU data was normalized to maximum (1.0 nM BACE/DMSO) and minimum (no enzyme/DMSO)RFU values. […] The Ki values were calculated from the IC50 using the Cheng-Prusoff equation.

rat cortex Aβ40 = assay: Cortical Aβ40 in rats after oral dose (Luminex immunoassay); type: in vivo; conditions: 3 h after a 10 mg/kg oral dose, relative to vehicle cohort; for Change in rat cortex Aβ40 (Iminopyrimidinone): iminopyrimidinone analog
Method: Male CD rats (˜100 g; Crl:CD(SD); Charles River Laboratories, Kingston, N.Y.) were group housed and acclimated to the vivarium for 5-7 days prior to use in a study. Compounds were formulated in 20% hydroxypropyl-β-cyclodextrin and administered orally with a dosing volume of 5 ml/kg for rats. Three h after drug administration, rats were euthanized with excess CO2. The brain was removed from the skull and immediately frozen on dry ice. All tissues were stored at −70° C. until Aβ quantification.
Ab585 was labeled with biotin (b-Ab585) by first dialyzing the antibody sample extensively versus PBS (pH 7.8) to remove impurities, followed by dilution to between 1 and 2 mg/mL protein concentration. EZ-Link Sulfo-NHS-LC-Biotin (Pierce) was dissolved in PBS (pH 7.8) at a concentration of 1 mg/mL immediately prior to use. Ab585 was labeled with EZ-Link Sulfo-NHS-LC-biotin using a 10:1 biotin:antibody ratio by incubation at room temperature for 1 hour. The labeling reaction was quenched by addition of 1.0 M glycine to a final concentration of 0.1 M followed by 10 minute incubation at room temperature. Glycine was removed by extensive dialysis versus PBS.
The antibody was coupled to the beads using the Bio-Plex Amine Coupling Kit (Bio-Rad) as per the manufacturer's recommendations.
Rat brains were thawed briefly at 37° C. and both mid- and hindbrain regions were removed. The remaining material, consisting primarily of cortex (−800 mg) was carried through the guanidine extraction procedure. Cortices were added to a 2 ml BioPur tube (Eppendorf) along with a 6.35 mm chrome-coated steel ball and 1.0 ml of sucrose homogenization buffer (20 mM HEPES [pH 7.5], 50 mM KCl, 50 mM sucrose, 2 mM EDTA, 2 mM EGTA supplemented with complete protease inhibitors [Roche, EDTA-free]). Samples were then homogenized by agitation for 1.5 min at 30 cylces/sec in a MM300 tissue mixer (Retsch®). The resulting cortical homogenate was extracted with guanidine-HCl by mixing 67 μl of homogenate with 133 μl of 5 M Guanidine HCl, 50 mM Tris HCl (pH 8.0). To maximize the efficiency of Aβ extraction, samples were vortexed and then sonicated for 2 minutes in an ice bath using an Ultrasonics XL cup horn sonicator at a power setting of 8 (Heat Systems, Inc.). Insoluble material was removed by ultracentrifugation using a using a TLA-55 rotor in a TL-100 benchtop centrifuge (Beckman) at 100,000×g for 30 minutes. The resulting supernatant was then either diluted 1:10 in 5 M guanidine HCl, 0.05 M Tris HCl (pH 8.0) for protein analysis (BCA protein assay, Pierce Biochemicals) or assayed neat for Aβ340 levels. The Luminex rodent A1340 assay was performed as follows. First, 96 well filter binding plates (Millipore, catalogue #MSBVN12) were wetted with 100 μl of 1×LAβ40 buffer (0.05 M HEPES [pH 7.5], 0.2% BSA, 0.2% Tween-20, 0.15 M NaCl) by vacuum filtration on a Millipore 96-well manifold. […] Guanidine HCl was added to synthetic rodent Aβ40 standards in order to control for the effect of guanidine in brain extracts on the assay performance. Ten microliters of cortical extract, rodent Aβ40 standards or cortical extract from amyloid precursor protein knockout mice (to define background immunoreactivity) was added to each well. Plates were covered and incubated overnight at 4° C. Following the incubation, wells were cleared by vacuum and washed twice with 100 μl of 1×LAβ40 buffer on a Millipore manifold. Phycoerythrin-conjugated streptavidin (PE-strepavidin, BioRad) for detection of bound b-Ab585 was diluted 100-fold in 1×LA340 buffer and 50 μl was added to each well and incubated for 1 hour at room temperature with shaking.

[3] = molecular target: soluble human BACE1 catalytic domain (Homo sapiens (Human), UniProt P56817); assay: BACE1 HTRF FRET Assay; type: biochemical; conditions: about values; read-out: Ki value in BACE-1 assay
Sequence of soluble human BACE1 catalytic domain (P56817 75-416): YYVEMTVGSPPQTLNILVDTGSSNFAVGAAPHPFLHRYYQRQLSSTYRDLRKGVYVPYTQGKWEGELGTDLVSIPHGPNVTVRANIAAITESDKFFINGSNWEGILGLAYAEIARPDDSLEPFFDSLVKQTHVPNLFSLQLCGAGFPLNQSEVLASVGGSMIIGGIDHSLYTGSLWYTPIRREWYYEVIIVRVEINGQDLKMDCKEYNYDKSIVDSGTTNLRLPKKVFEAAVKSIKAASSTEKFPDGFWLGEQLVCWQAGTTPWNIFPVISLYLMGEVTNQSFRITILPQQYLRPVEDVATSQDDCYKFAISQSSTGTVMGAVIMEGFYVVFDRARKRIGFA

[4] = Solution stability, Example A (pH 7.4 phosphate buffer/MeOH, LC/MS); type: physicochemical
Method: A 1.05 mg/mL stock solution (5 mL) of Ex. 45 in MeOH was prepared. From the stock solution was taken out 1.25 mL and diluted to 25 mL with the addition of 23.75 mL of 10 mM phosphate buffer (pH 7.4)/MeOH (70/30 v/v). This new solution was split into three. One solution was incubated at 4° C., another incubated at 25° C. and the third incubated at 40° C. Each solution was analyzed by LC/MS after day 1, day 2 and day 6 and compared to a standard calibration curve for Ex. 45.
In the following study, the solution stability of the compound of Example 45 was measured and compared to that of Compound Z. The compound of Example 45 is an iminothiadiazine dioxide compound of the invention. Compound Z is the corresponding iminopyrimidinone compound. The structures of the compound of Example 45 and of Compound Z are shown below. Studies were performed in aqueous pH 7.4 buffer containing methanol at 4° C., 25° C. and 40° C.

[5] = Solution stability, Example B (pH 7.4 phosphate buffer/acetonitrile, 25° C., LC/MS); type: physicochemical; conditions: pH 7.4 buffer at 25° C., after 6 days
Method: Stock solutions of the tested compounds were prepared by dissolving about 3 mg of each compound in 3 mL of acetonitrile. Standards for test compounds were prepared by diluting 1 mL of the stock solution with an additional 4 mL of acetonitrile. These standards were stored at 4° C. Samples were prepared by diluting 1 mL of the stock solution with 4 mL of 50 mM pH 7.4 phosphate buffer. These samples were stored at 25° C. in the absence of light. Standards and samples were analyzed by LC/MS initially and at day 1, day 4, and day 6.
HPLC Conditions: • Mobile phase A: 10 mM pH 5 ammonium acetate buffer: methanol (90:10) • Mobile phase B: 10 mM pH 5 ammonium acetate buffer: methanol (10:90)
Column: Zorbax SB-Phenyl 4.6×50 mm, 1.8 μm • Column temperature: 40° C. • Flow: 0.8 mL/min. • Gradient:
• Detectors: UV at 220 nm and 236 nm
MS, ES ionization, positive mode, for identification only at final time point.
The terms reported in the tables below have the following meanings:
Area % is the integration of peak from HPLC as reported by Waters Empower II software.
RRT is the relative retention time of new product compared to the standard of the test compound.
In the following study, the solution stability of the compound of Example 47 was measured and compared to that of Compound Y. The compound of Example 47 is an iminothiadiazine dioxide compound of the invention. […]

Structure (SMILES): Cc1ccc(C(=O)Nc2ccc(F)c([C@]3(C)CS(=O)(=O)N(C)C(=N)N3)c2)nc1 [Example 35]
Papp A→B at 2 h [1]: 15.1 ×10⁻⁶ cm/s

Structure (SMILES): CN1C(=N)N[C@](C)(c2cc(NC(=O)c3ccc(C(F)(F)F)cn3)ccc2F)CS1(=O)=O [Example 26]
Change in rat cortex Aβ40 (Iminothiadiazine Dioxide) (rat cortex Aβ40): −33% | Papp A→B at 2 h [1]: 8.9 ×10⁻⁶ cm/s

Structure (SMILES): CN1C(=N)N[C@](C)(c2cc(-c3cccc(C#N)c3)cs2)CS1(=O)=O [Example 45]
Papp A→B at 2 h [1]: 22.6 ×10⁻⁶ cm/s

Structure (SMILES): COc1cnc(C(=O)Nc2ccc(F)c([C@]3(C)CS(=O)(=O)N(C)C(=N)N3)c2)cn1 [Example 40ai]
Change in rat cortex Aβ40 (Iminothiadiazine Dioxide) (rat cortex Aβ40): −51% | Papp A→B at 2 h [1]: 13.3 ×10⁻⁶ cm/s

Structure (SMILES): CN1C(=N)NC(C)(c2cc(NC(=O)N3CCCCC3)ccc2F)CS1(=O)=O (stereo not shown) [Example 160]
pKi [2]: ≤ 6.30

Structure (SMILES): CN1C(=N)N[C@](C)(c2cc(-c3cccc(C#N)c3)cs2)CC1=O [drawing 719, reference compound]
Change in rat cortex Aβ40 (Iminopyrimidinone) (rat cortex Aβ40): −5%

Structure (SMILES): CN1C(=N)N[C@](C)(c2cccs2)CS1(=O)=O [Example 19]
pKi [3]: ≤ 5.30

Structure (SMILES): CN1C(=N)N[C@](C)(c2c(F)ccc(NC(=O)c3ccc(F)cn3)c2F)CS1(=O)=O [Example 173]
Change in rat cortex Aβ40 (Iminothiadiazine Dioxide) (rat cortex Aβ40): −27% | Caco-2 AP → BL (nm/s) (Iminothiadiazine Dioxide) (Caco-2 cells): 126 nm/s

Structure (SMILES): CN1C(=N)N[C@](C)(c2cc(-c3cccc(C#N)c3)cs2)CC1=O [Compound Z]
Assay (Area %), degradation flag ([4]; pH 7.4, 4° C., 2 days): — ((—) stands for >20% degradation) | Assay (Area %), degradation flag ([4]; pH 7.4, 4° C., 6 days): — ((—) stands for >20% degradation) | Assay (Area %), degradation flag ([4]; pH 7.4, 25° C., 2 days): — ((—) stands for >20% degradation) | Assay (Area %), degradation flag ([4]; pH 7.4, 25° C., 6 days): — ((—) stands for >20% degradation) | Assay (Area %), degradation flag ([4]; pH 7.4, 40° C., 2 days): — ((—) stands for >20% degradation) | Assay (Area %), degradation flag ([4]; pH 7.4, 40° C., 6 days): — ((—) stands for >20% degradation) | hydrolysis product [5]: 12.45%

Structure (SMILES): COc1cnc(C(=O)Nc2cc(F)c(F)c([C@]3(C)CC(=O)N(C)C(=N)N3)c2)cn1 [drawing 713, reference compound]
Change in rat cortex Aβ40 (Iminopyrimidinone) (rat cortex Aβ40): +5%

Structure (SMILES): Cc1cnc(C(=O)Nc2ccc(F)c([C@]3(C)CS(=O)(=O)N(C)C(=N)N3)c2)cn1 [Example 36]
Change in rat cortex Aβ40 (Iminothiadiazine Dioxide) (rat cortex Aβ40): −25% | Papp A→B at 2 h [1]: 5.4 ×10⁻⁶ cm/s

Structure (SMILES): CN1C(=N)N[C@](C)(c2cc(NC(=O)c3ccc(Cl)cn3)ccc2F)CS1(=O)=O [Example 34]
Change in rat cortex Aβ40 (Iminothiadiazine Dioxide) (rat cortex Aβ40): −51% | Papp A→B at 2 h [1]: 11.8 ×10⁻⁶ cm/s

Structure (SMILES): CN1C(=N)N[C@](C)(c2cc(NC(=O)c3ccc(F)cn3)ccc2F)CC1=O [drawing 717, reference compound]
Change in rat cortex Aβ40 (Iminopyrimidinone) (rat cortex Aβ40): −3%

Structure (SMILES): CN1C(=N)N[C@](C)(c2cc(NC(=O)c3ccc(C(F)(F)F)cn3)ccc2F)CC1=O [drawing 707, reference compound]
Change in rat cortex Aβ40 (Iminopyrimidinone) (rat cortex Aβ40): 0%

Structure (SMILES): Cc1cnc(C(=O)Nc2cc([C@]3(C)CS(=O)(=O)N(C)C(=N)N3)ccn2)cn1 [Example 40x]
pKi [3]: ≤ 5.30

Structure (SMILES): CN1C(=N)N[C@](C)(c2cc(NC(=O)c3ccc(S(C)(=O)=O)cn3)cc(F)c2F)CS1(=O)=O [Example 40do]
pKi ([2]; about values): ≤ 6.30

Structure (SMILES): CN1C(=N)N[C@](C)(c2cc(NC(=O)c3ccc(F)cn3)ccc2F)CS1(=O)=O [Example 25]
Change in rat cortex Aβ40 (Iminothiadiazine Dioxide) (rat cortex Aβ40): −49% | Papp A→B at 2 h [1]: 12.8 ×10⁻⁶ cm/s

Structure (SMILES): CN1C(=N)N[C@](C)(c2cc(NC(=O)c3ccc(F)cn3)ccc2F)CC1=O [drawing 709, reference compound]
Change in rat cortex Aβ40 (Iminopyrimidinone) (rat cortex Aβ40): −11%

Structure (SMILES): COc1cnc(C(=O)Nc2cc(F)c(F)c([C@]3(C)CS(=O)(=O)N(C)C(=N)N3)c2)cn1 [Example 40di]
Change in rat cortex Aβ40 (Iminothiadiazine Dioxide) (rat cortex Aβ40): −38% | Papp A→B at 2 h [1]: 13.6 ×10⁻⁶ cm/s

Structure (SMILES): CN1C(=N)N[C@](C)(c2cc(NC(=O)c3c(F)cncc3C(F)(F)F)cc(F)c2F)CS1(=O)=O [Example 40ex]
pKi ([2]; about values): ≤ 6.30

Structure (SMILES): CN1C(=N)N[C@](C)(c2cc(NC(=O)c3ccc(Cl)cn3)ccc2F)CC1=O [drawing 705, reference compound]
Change in rat cortex Aβ40 (Iminopyrimidinone) (rat cortex Aβ40): −19%

Now from value to compound:

Papp A→B at 2 h [1]: 18.9 ×10⁻⁶ cm/s
Structure (SMILES): CN1C(=N)N[C@](C)(c2cc(-c3ccc(F)c(C#N)c3)cs2)CS1(=O)=O [Example 46]

Caco-2 AP → BL (nm/s) (Iminopyrimidinone) (Caco-2 cells): 136 nm/s
Structure (SMILES): CN1C(=N)N[C@](C)(c2cc(-c3ccc(F)c(C#N)c3)cs2)CC1=O [reference compound]

Caco-2 AP → BL (nm/s) (Iminopyrimidinone) (Caco-2 cells): 0 nm/s
Structure (SMILES): CN1C(=N)N[C@](C)(c2cc(NC(=O)c3ccc(Cl)cn3)ccc2F)CC1=O [drawing 727, reference compound]

pKi ([2]; about values): ≤ 6.30
Structure (SMILES): CN1C(=N)N[C@](C)(c2cccc(Nc3ncccc3C#N)n2)CS1(=O)=O [Example 164]

Caco-2 AP → BL (nm/s) (Iminopyrimidinone) (Caco-2 cells): 11 nm/s
Structure (SMILES): Cc1cnc(C(=O)Nc2ccc(F)c([C@]3(C)CC(=O)N(C)C(=N)N3)c2)cn1 [reference compound]

pKi [3]: ≤ 5.30
Structure (SMILES): CC[C@H]1[C@@](C)(c2cc(F)ccc2F)NC(=N)N(C)S1(=O)=O [Example 98]

Papp A→B at 2 h [1]: 27.8 ×10⁻⁶ cm/s
Structure (SMILES): CC#Cc1cncc(-c2cc(Cl)c([C@]3(C)CS(=O)(=O)N(C)C(=N)N3)s2)c1 [Example 52]

pKi [3]: ≤ 5.30
Structure (SMILES): CCc1cc2cc(F)c([C@]3(C)CS(=O)(=O)N(C)C(=N)N3)cc2[nH]1 [Example 189]

Caco-2 AP → BL (nm/s) (Iminopyrimidinone) (Caco-2 cells): 0 nm/s
Structure (SMILES): Cc1ccc(C(=O)Nc2ccc(F)c([C@]3(C)CC(=O)N(C)C(=N)N3)c2)nc1 [reference compound]

Caco-2 AP → BL (nm/s) (Iminopyrimidinone) (Caco-2 cells): 22 nm/s
Structure (SMILES): CN1C(=N)N[C@](C)(c2cc(NC(=O)c3ccc(F)cn3)ccc2F)CC1=O [drawing 731, reference compound]

Caco-2 AP → BL (nm/s) (Iminopyrimidinone) (Caco-2 cells): 153 nm/s
Structure (SMILES): CC#Cc1cncc(-c2cc(Cl)c([C@]3(C)CC(=O)N(C)C(=N)N3)s2)c1 [drawing 745, reference compound]

Caco-2 AP → BL (nm/s) (Iminopyrimidinone) (Caco-2 cells): 65 nm/s
Structure (SMILES): COc1cnc(C(=O)Nc2cc(F)c(F)c([C@]3(C)CC(=O)N(C)C(=N)N3)c2)cn1 [drawing 735, reference compound]

Caco-2 AP → BL (nm/s) (Iminopyrimidinone) (Caco-2 cells): 174 nm/s
Structure (SMILES): CN1C(=N)N[C@](C)(c2cc(-c3cccc(C#N)c3)cs2)CC1=O [drawing 741, reference compound]

pKi [3]: ≤ 5.30
Structure (SMILES): CC1[C@@](C)(c2cccc(-c3cccc(C#N)c3)c2)NC(=N)N(C)S1(=O)=O (stereo partly shown) [Example 101]

Caco-2 AP → BL (nm/s) (Iminopyrimidinone) (Caco-2 cells): 17 nm/s
Structure (SMILES): CN1C(=N)N[C@](C)(c2cc(NC(=O)c3ccc(C(F)(F)F)cn3)ccc2F)CC1=O [drawing 729, reference compound]

efflux ratio at 2 h ([1]; Caco-2, Papp BL to AP / Papp AP to BL, iminopyrimidinone analog): 6.1 | Caco-2 AP → BL (nm/s) (Iminopyrimidinone) (Caco-2 cells): 25 nm/s
Structure (SMILES): CN1C(=N)N[C@](C)(c2cc(NC(=O)c3ccc(F)cn3)ccc2F)CC1=O [drawing 739, reference compound]

pKi ([2]; about values): ≤ 6.30
Structure (SMILES): CN1C(=N)N[C@](C)(c2cc(NC(=O)N3CCOCC3)ccc2F)CS1(=O)=O [Example 161a]
